# According to the supplement of paper PMC10307832:
# How the values were obtained:
# Experiment in all cases: relative viability (nuclei count vs DMSO), 5 days (fraction); higher = more cells survive
# A-427 = test system: A-427
# Procedure, shortened: (§1)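 Lung cancer cell lines, seeded in 1536-well plates, were treated the following day by pin tool with a single drug or with five library-drug doses (not always all listed) in √10 steps on top of a fixed anchor-drug dose. Cells were fixed and nuclei stained in one step after 5 days, and nuclei were counted. Relative viability is the nuclei count for treated wells divided by that for vehicle wells, reported as medians of duplicate plates.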
# HCC-15 = test system: HCC-15
# Procedure, shortened: as §1
# HCC-78 = test system: HCC-78
# Procedure, shortened: as §1
# HOP-62 = test system: HOP-62
# Procedure, shortened: as §1
# LC-2-ad = test system: LC-2-ad
# Procedure, shortened: as §1
# LXF-289 = test system: LXF-289
# Procedure, shortened: as §1
# NCI-H1734 = test system: NCI-H1734
# Procedure, shortened: as §1
# NCI-H1755 = test system: NCI-H1755
# Procedure, shortened: as §1
# NCI-H1792 = test system: NCI-H1792
# Procedure, shortened: as §1
# NCI-H1915 = test system: NCI-H1915
# Procedure, shortened: as §1
# NCI-H1975 = test system: NCI-H1975
# Procedure, shortened: as §1
# NCI-H2126 = test system: NCI-H2126
# Procedure, shortened: as §1
# NCI-H2228 = test system: NCI-H2228
# Procedure, shortened: as §1
# NCI-H2342 = test system: NCI-H2342
# Procedure, shortened: as §1
# NCI-H2347 = test system: NCI-H2347
# Procedure, shortened: as §1
# NCI-H358 = test system: NCI-H358
# Procedure, shortened: as §1
# NCI-H522 = test system: NCI-H522
# Procedure, shortened: as §1
# NCI-H647 = test system: NCI-H647
# Procedure, shortened: as §1
# PC-3 [JPC-3] = test system: PC-3 [JPC-3]
# Procedure, shortened: as §1
# RERF-LC-KJ = test system: RERF-LC-KJ
# Procedure, shortened: as §1
# SK-LU-1 = test system: SK-LU-1
# Procedure, shortened: as §1
# SW 1573 = test system: SW 1573
# Procedure, shortened: as §1
structure (smiles),measurement,setting,value
CC(=O)O[C@@]12CO[C@@H]1C[C@H](O)[C@@]1(C)C(=O)[C@H](O)C3=C(C)[C@@H](OC(=O)[C@H](O)[C@@H](NC(=O)OC(C)(C)C)c4ccccc4)C[C@@](O)([C@@H](OC(=O)c4ccccc4)[C@H]21)C3(C)C [Docetaxel] + CC(=O)c1c(C)c2cnc(Nc3ccc(N4CCNCC4)cn3)nc2n(C2CCCC2)c1=O [Palbociclib] (partner 0.5 µM),relative viability,A-427; first compound 0.0002 µM,0.522
same,relative viability,A-427; first compound 0.000632 µM,0.505
same,relative viability,A-427; first compound 0.002 µM,0.507
same,relative viability,A-427; first compound 0.006325 µM,0.372
same,relative viability,A-427; first compound 0.02 µM,0.241
same,relative viability,HCC-15; first compound 0.0002 µM,0.643
same,relative viability,HCC-15; first compound 0.000632 µM,0.383
same,relative viability,HCC-15; first compound 0.002 µM,0.228
same,relative viability,HCC-15; first compound 0.006325 µM,0.247
same,relative viability,HCC-78; first compound 0.0002 µM,0.388
same,relative viability,HCC-78; first compound 0.000632 µM,0.481
same,relative viability,HCC-78; first compound 0.002 µM,0.435
same,relative viability,HCC-78; first compound 0.006325 µM,0.457
same,relative viability,HCC-78; first compound 0.02 µM,0.4
same,relative viability,HOP-62; first compound 0.0002 µM,0.461
same,relative viability,HOP-62; first compound 0.000632 µM,0.353
same,relative viability,HOP-62; first compound 0.002 µM,0.284
same,relative viability,HOP-62; first compound 0.02 µM,0.156
same,relative viability,LC-2-ad; first compound 0.0002 µM,0.438
same,relative viability,LC-2-ad; first compound 0.000632 µM,0.448
same,relative viability,LC-2-ad; first compound 0.002 µM,0.334
same,relative viability,LC-2-ad; first compound 0.006325 µM,0.284
same,relative viability,LC-2-ad; first compound 0.02 µM,0.233
same,relative viability,LXF-289; first compound 0.0002 µM,0.578
same,relative viability,LXF-289; first compound 0.000632 µM,0.569
same,relative viability,LXF-289; first compound 0.002 µM,0.337
same,relative viability,LXF-289; first compound 0.006325 µM,0.222
same,relative viability,LXF-289; first compound 0.02 µM,0.131
same,relative viability,NCI-H1734; first compound 0.0002 µM,0.321
same,relative viability,NCI-H1734; first compound 0.000632 µM,0.336
same,relative viability,NCI-H1734; first compound 0.002 µM,0.281
same,relative viability,NCI-H1734; first compound 0.006325 µM,0.314
same,relative viability,NCI-H1734; first compound 0.02 µM,0.23
same,relative viability,NCI-H1755; first compound 0.0002 µM,0.466
same,relative viability,NCI-H1755; first compound 0.000632 µM,0.489
same,relative viability,NCI-H1755; first compound 0.002 µM,0.5
same,relative viability,NCI-H1755; first compound 0.006325 µM,0.41
same,relative viability,NCI-H1755; first compound 0.02 µM,0.406
same,relative viability,NCI-H1792; first compound 0.0002 µM,0.651
same,relative viability,NCI-H1792; first compound 0.000632 µM,0.639
same,relative viability,NCI-H1792; first compound 0.002 µM,0.543
same,relative viability,NCI-H1792; first compound 0.006325 µM,0.367
same,relative viability,NCI-H1792; first compound 0.02 µM,0.213
same,relative viability,NCI-H1915; first compound 0.0002 µM,0.506
same,relative viability,NCI-H1915; first compound 0.000632 µM,0.464
same,relative viability,NCI-H1915; first compound 0.002 µM,0.219
same,relative viability,NCI-H1915; first compound 0.006325 µM,0.149
same,relative viability,NCI-H1915; first compound 0.02 µM,0.102
same,relative viability,NCI-H1975; first compound 0.0002 µM,0.568
same,relative viability,NCI-H1975; first compound 0.000632 µM,0.354
same,relative viability,NCI-H1975; first compound 0.002 µM,0.224
same,relative viability,NCI-H1975; first compound 0.006325 µM,0.215
same,relative viability,NCI-H1975; first compound 0.02 µM,0.107
same,relative viability,NCI-H2126; first compound 0.0002 µM,0.378
same,relative viability,NCI-H2126; first compound 0.000632 µM,0.356
same,relative viability,NCI-H2126; first compound 0.002 µM,0.332
same,relative viability,NCI-H2126; first compound 0.006325 µM,0.261
same,relative viability,NCI-H2228; first compound 0.0002 µM,0.52
same,relative viability,NCI-H2228; first compound 0.000632 µM,0.251
same,relative viability,NCI-H2228; first compound 0.002 µM,0.195
same,relative viability,NCI-H2228; first compound 0.006325 µM,0.137
same,relative viability,NCI-H2228; first compound 0.02 µM,0.129
same,relative viability,NCI-H2342; first compound 0.0002 µM,0.683
same,relative viability,NCI-H2342; first compound 0.000632 µM,0.558
same,relative viability,NCI-H2342; first compound 0.002 µM,0.486
same,relative viability,NCI-H2342; first compound 0.006325 µM,0.388
same,relative viability,NCI-H2342; first compound 0.02 µM,0.394
same,relative viability,NCI-H2347; first compound 0.0002 µM,0.375
same,relative viability,NCI-H2347; first compound 0.000632 µM,0.429
same,relative viability,NCI-H2347; first compound 0.002 µM,0.408
same,relative viability,NCI-H2347; first compound 0.006325 µM,0.373
same,relative viability,NCI-H2347; first compound 0.02 µM,0.343
same,relative viability,NCI-H358; first compound 0.0002 µM,0.16
same,relative viability,NCI-H358; first compound 0.000632 µM,0.173
same,relative viability,NCI-H358; first compound 0.002 µM,0.142
same,relative viability,NCI-H358; first compound 0.006325 µM,0.126
same,relative viability,NCI-H358; first compound 0.02 µM,0.111
same,relative viability,NCI-H522; first compound 0.0002 µM,1.11
same,relative viability,NCI-H522; first compound 0.000632 µM,0.795
same,relative viability,NCI-H522; first compound 0.002 µM,0.758
same,relative viability,NCI-H522; first compound 0.006325 µM,0.565
same,relative viability,NCI-H522; first compound 0.02 µM,0.311
same,relative viability,NCI-H647; first compound 0.0002 µM,0.3
same,relative viability,NCI-H647; first compound 0.000632 µM,0.387
same,relative viability,NCI-H647; first compound 0.002 µM,0.11
same,relative viability,NCI-H647; first compound 0.006325 µM,0.0808
same,relative viability,NCI-H647; first compound 0.02 µM,0.062
same,relative viability,PC-3 [JPC-3]; first compound 0.0002 µM,0.55
same,relative viability,PC-3 [JPC-3]; first compound 0.000632 µM,0.559
same,relative viability,PC-3 [JPC-3]; first compound 0.002 µM,0.573
same,relative viability,PC-3 [JPC-3]; first compound 0.006325 µM,0.469
same,relative viability,PC-3 [JPC-3]; first compound 0.02 µM,0.422
same,relative viability,RERF-LC-KJ; first compound 0.0002 µM,1.02
same,relative viability,RERF-LC-KJ; first compound 0.000632 µM,1.37
same,relative viability,RERF-LC-KJ; first compound 0.002 µM,0.381
same,relative viability,RERF-LC-KJ; first compound 0.006325 µM,0.249
same,relative viability,RERF-LC-KJ; first compound 0.02 µM,0.165
same,relative viability,SK-LU-1; first compound 0.0002 µM,0.358
same,relative viability,SK-LU-1; first compound 0.000632 µM,0.315
same,relative viability,SK-LU-1; first compound 0.002 µM,0.409
same,relative viability,SK-LU-1; first compound 0.006325 µM,0.265
same,relative viability,SK-LU-1; first compound 0.02 µM,0.19
same,relative viability,SW 1573; first compound 0.0002 µM,0.316
same,relative viability,SW 1573; first compound 0.000632 µM,0.23
same,relative viability,SW 1573; first compound 0.002 µM,0.155
same,relative viability,SW 1573; first compound 0.006325 µM,0.196
same,relative viability,SW 1573; first compound 0.02 µM,0.0993
